Measurements reported in ChEMBL document CHEMBL1255421, “In vitro fungicidal activities of echinocandins against Candida metapsilosis, C. orthopsilosis, and C. parapsilosis evaluated by time-kill studies” (2010).
Converted amounts (≈) assume the structure as drawn. The source made the active and inactive calls. The calls are words filed in the database; no cut-off is given here. Numbered stars: 1 amine (or outer) side, 2 acyl side, 3 side chain; on linkers, the order of the positions; unused ones are H or OH. Bridge positions count the residues as written; N and C are the ends. Square brackets hold non-standard residues; d marks the D form. Peptide text beside a SMILES is read from it. * marks the point of attachment. hTyr(3S-OH,4S-OH,3'-OSO3H) = N[C@H](C(=O)O)[C@H](O)[C@@H](O)c1ccc(O)c(OS(=O)(=O)O)c1; Orn(4R-OH,5R-OH) = O=C([C@H](C[C@@H](O)[C@@H](O)N[*:3])N[*:1])[*:2]; Pro(3S-OH,4S-Me) = C[C@H]1CN[C@H](C(=O)O)[C@H]1O; X1 = CCCCCOc1ccc(-c2cc(-c3ccc(C(=O)*)cc3)no2)cc1; Gln(3R-OH) = NC(=O)C[C@@H](O)[C@H](N)C(=O)O; Hyp = O=C(O)[C@@H]1C[C@@H](O)CN1

Columns and labels:
Candida orthopsilosis [1] = test: Antifungal activity against Candida orthopsilosis clinical isolate bloodstream form assessed as time required for 99.9% reduction in fungal growth at 1 mg/L by time-kill assay; format: functional
Candida orthopsilosis [2] = test: Antifungal activity against Candida orthopsilosis clinical isolate bloodstream form assessed as time required for 99.9% reduction in fungal growth at 16 mg/L by time-kill assay; format: functional
Candida orthopsilosis [3] = test: Antifungal activity against Candida orthopsilosis clinical isolate bloodstream form assessed as time required for 99.9% reduction in fungal growth at 32 mg/L by time-kill assay; format: functional
Candida metapsilosis [4] = test: Antifungal activity against Candida metapsilosis clinical isolate bloodstream form assessed as time required for 50% reduction in fungal growth at 0.25 mg/L by time-kill assay; format: functional
Candida metapsilosis [5] = test: Antifungal activity against Candida metapsilosis clinical isolate bloodstream form assessed as time required for 50% reduction in fungal growth at 1 mg/L by time-kill assay; format: functional
Candida metapsilosis [6] = test: Antifungal activity against Candida metapsilosis clinical isolate bloodstream form assessed as time required for 50% reduction in fungal growth at 4 mg/L by time-kill assay; format: functional
Candida metapsilosis [7] = test: Antifungal activity against Candida metapsilosis clinical isolate bloodstream form assessed as time required for 90% reduction in fungal growth at 4 mg/L by time-kill assay; format: functional
Candida metapsilosis [8] = test: Antifungal activity against Candida metapsilosis clinical isolate bloodstream form assessed as time required for 90% reduction in fungal growth at 16 mg/L by time-kill assay; format: functional
Candida metapsilosis [9] = test: Antifungal activity against Candida metapsilosis clinical isolate bloodstream form assessed as time required for 99% reduction in fungal growth at 1 mg/L by time-kill assay; format: functional
Candida metapsilosis [10] = test: Antifungal activity against Candida metapsilosis clinical isolate bloodstream form assessed as time required for 99% reduction in fungal growth at 16 mg/L by time-kill assay; format: functional
Candida metapsilosis [11] = test: Antifungal activity against Candida metapsilosis clinical isolate bloodstream form assessed as time required for 99% reduction in fungal growth at 32 mg/L by time-kill assay; format: functional
Candida metapsilosis [12] = test: Antifungal activity against Candida metapsilosis clinical isolate bloodstream form assessed as time required for 99.9% reduction in fungal growth at 0.25 mg/L by time-kill assay; format: functional
Candida metapsilosis [13] = test: Antifungal activity against Candida metapsilosis clinical isolate bloodstream form assessed as time required for 99.9% reduction in fungal growth at 4 mg/L by time-kill assay; format: functional
Candida metapsilosis [14] = test: Antifungal activity against Candida metapsilosis clinical isolate bloodstream form assessed as time required for 99.9% reduction in fungal growth at 16 mg/L by time-kill assay; format: functional
Candida parapsilosis [15] = test: Antifungal activity against Candida parapsilosis clinical isolate bloodstream form assessed as time required for 50% reduction in fungal growth at 1 mg/L by time-kill assay; format: functional
Candida parapsilosis [16] = test: Antifungal activity against Candida parapsilosis clinical isolate bloodstream form assessed as time required for 50% reduction in fungal growth at 4 mg/L by time-kill assay; format: functional
Candida parapsilosis [17] = test: Antifungal activity against Candida parapsilosis clinical isolate bloodstream form assessed as time required for 50% reduction in fungal growth at 16 mg/L by time-kill assay; format: functional
Candida parapsilosis [18] = test: Antifungal activity against Candida parapsilosis clinical isolate bloodstream form assessed as time required for 90% reduction in fungal growth at 4 mg/L by time-kill assay; format: functional
Candida parapsilosis [19] = test: Antifungal activity against Candida parapsilosis clinical isolate bloodstream form assessed as time required for 90% reduction in fungal growth at 16 mg/L by time-kill assay; format: functional
Candida parapsilosis [20] = test: Antifungal activity against Candida parapsilosis clinical isolate bloodstream form assessed as time required for 90% reduction in fungal growth at 32 mg/L by time-kill assay; format: functional
Candida parapsilosis [21] = test: Antifungal activity against Candida parapsilosis clinical isolate bloodstream form assessed as time required for 99.9% reduction in fungal growth at 0.25 mg/L by time-kill assay; format: functional
Candida parapsilosis [22] = test: Antifungal activity against Candida parapsilosis clinical isolate bloodstream form assessed as time required for 99.9% reduction in fungal growth at 1 mg/L by time-kill assay; format: functional
Candida parapsilosis [23] = test: Antifungal activity against Candida parapsilosis clinical isolate bloodstream form assessed as time required for 99.9% reduction in fungal growth at 4 mg/L by time-kill assay; format: functional
Candida parapsilosis [24] = test: Antifungal activity against Candida parapsilosis clinical isolate bloodstream form assessed as time required for 99.9% reduction in fungal growth at 16 mg/L by time-kill assay; format: functional
Candida orthopsilosis [25] = test: Fungicidal activity against Candida orthopsilosis isolate CP-131 bloodstream form by CLSI method; format: functional; settings: Lodderomyces orthopsilosis
Candida orthopsilosis [26] = test: Fungicidal activity against Candida orthopsilosis isolate ATC194 bloodstream form by CLSI method; format: functional; settings: Lodderomyces orthopsilosis, isolate ATC-194
Candida metapsilosis [27] = test: Fungicidal activity against Candida metapsilosis isolate CP-132 bloodstream form by CLSI method; format: functional; settings: Lodderomyces metapsilosis
Candida parapsilosis [28] = test: Fungicidal activity against Candida parapsilosis isolate CP-300 bloodstream form by CLSI method; format: functional; settings: Lodderomyces parapsilosis
Candida parapsilosis [29] = test: Fungicidal activity against Candida parapsilosis isolate CP-301 bloodstream form by CLSI method; format: functional; settings: Lodderomyces parapsilosis
Candida parapsilosis [30] = test: Fungicidal activity against Candida parapsilosis ATCC 22019 bloodstream form by CLSI method; format: functional; settings: Lodderomyces parapsilosis
Candida parapsilosis [31] = test: Antifungal activity against Candida parapsilosis clinical isolate bloodstream form assessed as induction of fungal killing rate at 0.03 to 32 mg/L measured at 6 hrs by time-kill assay; format: functional, organism-based
Candida orthopsilosis [32] = test: Antifungal activity against Candida orthopsilosis clinical isolate bloodstream form assessed as induction of fungal killing rate at 0.03 to 32 mg/L measured at 6 hrs by time-kill assay; format: functional, organism-based
Candida metapsilosis [33] = test: Antifungal activity against Candida metapsilosis clinical isolate bloodstream form assessed as mild induction of fungal death at 0.03 to 32 mg/L after 6 hrs by time-kill assay; format: functional, organism-based
Candida orthopsilosis [34] = test: Antifungal activity against Candida orthopsilosis clinical isolate bloodstream form assessed as time required for 50% reduction in fungal growth at 0.25 mg/L by time-kill assay; format: functional
Candida orthopsilosis [35] = test: Antifungal activity against Candida orthopsilosis clinical isolate bloodstream form assessed as time required for 50% reduction in fungal growth at 4 mg/L by time-kill assay; format: functional
Candida orthopsilosis [36] = test: Antifungal activity against Candida orthopsilosis clinical isolate bloodstream form assessed as time required for 50% reduction in fungal growth at 16 mg/L by time-kill assay; format: functional
Candida orthopsilosis [37] = test: Antifungal activity against Candida orthopsilosis clinical isolate bloodstream form assessed as time required for 90% reduction in fungal growth at 0.25 mg/L by time-kill assay; format: functional
Candida orthopsilosis [38] = test: Antifungal activity against Candida orthopsilosis clinical isolate bloodstream form assessed as time required for 90% reduction in fungal growth at 1 mg/L by time-kill assay; format: functional
Candida orthopsilosis [39] = test: Antifungal activity against Candida orthopsilosis clinical isolate bloodstream form assessed as time required for 99% reduction in fungal growth at 0.25 mg/L by time-kill assay; format: functional
Candida orthopsilosis [40] = test: Antifungal activity against Candida orthopsilosis clinical isolate bloodstream form assessed as time required for 99% reduction in fungal growth at 1 mg/L by time-kill assay; format: functional
Candida orthopsilosis [41] = test: Antifungal activity against Candida orthopsilosis clinical isolate bloodstream form assessed as time required for 99% reduction in fungal growth at 4 mg/L by time-kill assay; format: functional
Candida orthopsilosis [42] = test: Antifungal activity against Candida orthopsilosis clinical isolate bloodstream form assessed as time required for 99% reduction in fungal growth at 16 mg/L by time-kill assay; format: functional
Candida orthopsilosis [43] = test: Antifungal activity against Candida orthopsilosis clinical isolate bloodstream form assessed as time required for 99% reduction in fungal growth at 32 mg/L by time-kill assay; format: functional

## CCCCCOc1ccc(-c2cc(-c3ccc(C(=O)N[C@H]4C[C@@H](O)[C@@H](O)NC(=O)[C@@H]5[C@@H](O)[C@@H](C)CN5C(=O)[C@H]([C@H](O)CC(N)=O)NC(=O)[C@H]([C@H](O)[C@@H](O)c5ccc(O)c(OS(=O)(=O)O)c5)NC(=O)[C@@H]5C[C@@H](O)CN5C(=O)[C@H]([C@@H](C)O)NC4=O)cc3)no2)cc1 [MICAFUNGIN] (X1-[Orn(4R-OH,5R-OH)]T[Hyp][hTyr(3S-OH,4S-OH,3'-OSO3H)][Gln(3R-OH)][Pro(3S-OH,4S-Me)]; lactam 1-C)
Candida orthopsilosis [1]
  Time: 30.4 h
Candida orthopsilosis [2]
  Time: 13.76 h
Candida orthopsilosis [3]
  Time: 15.34 h
Candida metapsilosis [4]
  Time: >48 h
Candida metapsilosis [5]
  Time: 3.06 h
Candida metapsilosis [6]
  Time: 1.77 h
Candida metapsilosis [7]
  Time: 5.89 h
Candida metapsilosis [8]
  Time: 4.8 h
Candida metapsilosis [9]
  Time: 20.3 h
Candida metapsilosis [10]
  Time: 9.61 h
Candida metapsilosis [11]
  Time: 9.53 h
Candida metapsilosis [12]
  Time: >48 h
Candida metapsilosis [13]
  Time: 17.68 h
Candida metapsilosis [14]
  Time: 14.41 h
Candida parapsilosis [15]
  Time: inactive
Candida parapsilosis [16]
  Time: 17.6 h
Candida parapsilosis [17]
  Time: 9.5 h
Candida parapsilosis [18]
  Time: >48 h
Candida parapsilosis [19]
  Time: 31.55 h
Candida parapsilosis [20]
  Time: 20.45 h
Candida parapsilosis [21]
  Time: inactive
Candida parapsilosis [22]
  Time: inactive
Candida parapsilosis [23]
  Time: >48 h
Candida parapsilosis [24]
  Time: >48 h
Candida orthopsilosis [25]
  MIC: 0.25 µg/mL (≈ 0.197 µM)
Candida orthopsilosis [26]
  MIC: 0.5 µg/mL (≈ 0.394 µM)
Candida metapsilosis [27]
  MIC: 0.5 µg/mL (≈ 0.394 µM)
Candida parapsilosis [28]
  MIC: 0.25 µg/mL (≈ 0.197 µM)
Candida parapsilosis [29]
  MIC: 1 µg/mL (≈ 0.787 µM)
Candida parapsilosis [30]
  MIC: 0.5 µg/mL (≈ 0.394 µM)
Candida parapsilosis [31]
  Activity: inactive
Candida orthopsilosis [32]
  Activity: inactive
Candida metapsilosis [33]
  Activity: Active
Candida orthopsilosis [34]
  Time: 15.93 h
Candida orthopsilosis [35]
  Time: 1.66 h
Candida orthopsilosis [36]
  Time: 1.38 h
Candida orthopsilosis [37]
  Time: >48 h
Candida orthopsilosis [38]
  Time: 10.13 h
Candida orthopsilosis [39]
  Time: >48 h
Candida orthopsilosis [40]
  Time: 20.26 h
Candida orthopsilosis [41]
  Time: 11.06 h
Candida orthopsilosis [42]
  Time: 9.17 h
Candida orthopsilosis [43]
  Time: 10.22 h
